Results on one molecule are retold here after article PMC10685318, “Trans-cyclosulfamidate mannose-configured cyclitol allows isoform-dependent inhibition of GH47 α-D-mannosidases through a bump–hole strategy” (Chemical Science, 2023).

In the assay the target is T1, MAN2B2 (Homo sapiens, UniProt Q9Y2E5).
T1 construct: expressed in transfected cells
T1 sequence (Q9Y2E5 24-1009): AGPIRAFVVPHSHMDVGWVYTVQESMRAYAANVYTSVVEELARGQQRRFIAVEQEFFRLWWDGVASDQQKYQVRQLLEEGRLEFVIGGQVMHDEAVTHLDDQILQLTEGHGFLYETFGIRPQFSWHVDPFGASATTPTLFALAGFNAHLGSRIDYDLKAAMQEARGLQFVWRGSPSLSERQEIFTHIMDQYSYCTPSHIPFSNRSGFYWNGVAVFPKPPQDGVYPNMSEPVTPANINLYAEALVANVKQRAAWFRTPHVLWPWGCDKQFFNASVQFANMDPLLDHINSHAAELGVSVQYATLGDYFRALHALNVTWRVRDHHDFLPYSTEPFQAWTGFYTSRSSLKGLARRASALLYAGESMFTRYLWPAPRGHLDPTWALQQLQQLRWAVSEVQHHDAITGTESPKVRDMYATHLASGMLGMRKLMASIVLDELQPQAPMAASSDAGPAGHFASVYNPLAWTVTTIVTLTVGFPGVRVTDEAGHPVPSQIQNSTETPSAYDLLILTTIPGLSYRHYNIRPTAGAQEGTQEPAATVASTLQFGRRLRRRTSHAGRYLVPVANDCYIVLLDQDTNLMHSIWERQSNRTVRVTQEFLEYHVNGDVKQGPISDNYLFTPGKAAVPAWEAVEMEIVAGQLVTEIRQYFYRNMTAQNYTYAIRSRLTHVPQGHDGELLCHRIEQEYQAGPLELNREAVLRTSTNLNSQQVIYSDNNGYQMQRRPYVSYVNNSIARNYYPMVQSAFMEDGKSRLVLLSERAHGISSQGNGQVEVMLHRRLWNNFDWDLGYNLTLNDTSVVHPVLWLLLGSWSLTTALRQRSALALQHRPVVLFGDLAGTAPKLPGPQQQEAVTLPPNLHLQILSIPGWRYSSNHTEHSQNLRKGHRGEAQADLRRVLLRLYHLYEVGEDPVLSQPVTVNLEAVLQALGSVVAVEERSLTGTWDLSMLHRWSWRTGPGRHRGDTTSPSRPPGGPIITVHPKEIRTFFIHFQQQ
The experiment in a line: 4-MU-α-man activity assay in overexpressed cell lysates. Format: biochemical.

Turning to `O=S1(=O)N[C@@H]2[C@@H](O)[C@@H](O)[C@H](O)[C@@H](CO)[C@H]2O1` [compound 6, 1,6-trans-manno-cyclosulfamidate], the “activity when the buffer was enriched with CoCl2” value (CoCl2) is recorded as “no activity”. Where the note is “Zn2+”, the IC50 is above 1000 µM.
